Measured values as given in PMC3460821, “SIRT1 Activators Suppress Inflammatory Responses through Promotion of p65 Deacetylation and Inhibition of NF-κB Activity” (PLoS ONE, 2012).

The compounds below were run on SIRT1 (assay: cells). Conditions: reduction of cellular acetylated p65 (K310); read-out: Cellular p65 acetylation assay IC50.
Parameters: species or system U2OS or HEK 293; AlphaScreen of acetylated K310-p65 in lysates of cells co-expressing p300 and HA-p65; reduction by SIRT1 activators
Experimental: Acetylated p65 protein in cell lysates was measured by an AlphaScreen format based assay (Bosse et al., Principles of AlphaScreen. PerkinElmer Application Note (2001)). A sandwich comprised of a biotinylated anti-HA antibody (Roche, 12158167001) bound to streptavidin coated donor beads (PerkinElmer, 6760617M) and an anti-acetylated K310-p65 antibody (Abcam, ab19870) interacting with protein A coated acceptor beads was assembled to detect light emission upon acetylated HA-p65 protein binding to the donor and acceptor beads. A similar AlphaScreen assay to measure total HA-tagged p65 protein was also developed by replacing the anti-acetylated K310-p65 antibody with an anti-p65 antibody (Santa Cruz, sc-109). The level of acetylated p65 protein was normalized against the total HA-tagged p65 protein measured in parallel for the same sample. We developed a high throughput cellular assay to examine the ability of compounds to promote SIRT1-mediated deacetylation of p65 protein in cells. This assay system uses BacMam virus transduction in U2OS or HEK 293 cells to co-express p300 HAT and an HA-tagged p65 NF-κB subunit to enable detection of acetylated p65. […] Similarly, pharmacological inhibition of SIRT1 by a specific SIRT1 inhibitor, EX-527 [46], increased the levels of acetylated p65 protein (Figure 3D). […] STACs that were identified from biochemical assays (File S1) were evaluated in the acetylated p65 cellular assay. […] The compounds were tested for the inhibition of histone acetyltransferases (HATs) since this could result in a reduction of acetylated p65 that could not be distinguished from an enhancement of deacetylation.

| SMILES | IC50 [nM] |
| --- | --- |
| O=C(Nc1nccs1)c1cccc2[nH]c(-c3cccc(N4CCOCC4)c3)nc12 [SRTCX1002] | 840 |
| O=C(Nc1nccs1)c1cccc2[nH]c(-c3ccccc3OCCN3CCOCC3)nc12 [SRTCX1003] | 1420 |
| O=C(Nc1nccs1)c1cccc2[nH]c(-c3ccc4c(c3)OC(F)(F)O4)nc12 [SRTCZ1001] | > 25000 |
